Assay results taken from the supplement of paper PMC10307832.

Tests used:
Assay in all cases: relative viability (nuclei count vs DMSO), 5 days (fraction); higher = more cells survive
NCI-H358 = test system: NCI-H358
Method in brief: (§1)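 Dosing by pin tool came one day after lung cancer cell lines were seeded in 1536-well plates, using either one drug or a fixed anchor-drug dose plus five library-drug doses (not always all listed) in √10 steps. After 5 days, nuclei were counted on 4× images. Relative viability is treated-well nuclei count divided by vehicle-well nuclei count, and values are medians of duplicate plates.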

NCI-H1650 = test system: NCI-H1650
Method in brief: as §1

NCI-H2347 = test system: NCI-H2347
Method in brief: as §1

SW 1573 = test system: SW 1573
Method in brief: as §1

LXF-289 = test system: LXF-289
Method in brief: as §1

PC-14 = test system: PC-14
Method in brief: as §1

NCI-H2342 = test system: NCI-H2342
Method in brief: as §1

NCI-H1563 = test system: NCI-H1563
Method in brief: as §1

SK-LU-1 = test system: SK-LU-1
Method in brief: as §1

LCLC-97TM1 = test system: LCLC-97TM1
Method in brief: as §1

NCI-H647 = test system: NCI-H647
Method in brief: as §1

NCI-H1993 = test system: NCI-H1993
Method in brief: as §1

NCI-H2009 = test system: NCI-H2009
Method in brief: as §1

H3255 = test system: H3255
Method in brief: as §1

HOP-62 = test system: HOP-62
Method in brief: as §1

NCI-H2023 = test system: NCI-H2023
Method in brief: as §1

EMC-BAC-2 = test system: EMC-BAC-2
Method in brief: as §1

NCI-H727 = test system: NCI-H727
Method in brief: as §1

NCI-H1915 = test system: NCI-H1915
Method in brief: as §1

BEN = test system: BEN
Method in brief: as §1

NCI-H661 = test system: NCI-H661
Method in brief: as §1

NCI-H322M = test system: NCI-H322M
Method in brief: as §1

NCI-H2085 = test system: NCI-H2085
Method in brief: as §1

NCI-H2126 = test system: NCI-H2126
Method in brief: as §1

## COc1cc(N2CCC(C(N)=O)CC2)ccc1Nc1nc(N)c(Cl)c(Nc2ccccc2S(=O)(=O)C(C)C)n1 [HG-5-88-01] + N=C(N)NC(=N)NCCc1ccccc1 [Phenformin] (partner 250 µM)
NCI-H358; first compound 0.04 µM
  relative viability: 0.268
NCI-H358; first compound 0.1265 µM
  relative viability: 0.246
NCI-H358; first compound 0.4 µM
  relative viability: 0.216
NCI-H358; first compound 1.265 µM
  relative viability: 0.129
NCI-H358; first compound 4 µM
  relative viability: 0.139
NCI-H1650; first compound 0.04 µM
  relative viability: 0.452
NCI-H1650; first compound 0.1265 µM
  relative viability: 0.386
NCI-H1650; first compound 0.4 µM
  relative viability: 0.254
NCI-H1650; first compound 1.265 µM
  relative viability: 0.236
NCI-H1650; first compound 4 µM
  relative viability: 0.259
NCI-H2347; first compound 0.04 µM
  relative viability: 0.295
NCI-H2347; first compound 0.1265 µM
  relative viability: 0.626
NCI-H2347; first compound 0.4 µM
  relative viability: 0.448
NCI-H2347; first compound 1.265 µM
  relative viability: 0.41
NCI-H2347; first compound 4 µM
  relative viability: 0.487
SW 1573; first compound 0.04 µM
  relative viability: 0.335
SW 1573; first compound 0.1265 µM
  relative viability: 0.368
SW 1573; first compound 0.4 µM
  relative viability: 0.324
SW 1573; first compound 1.265 µM
  relative viability: 0.229
SW 1573; first compound 4 µM
  relative viability: 0.344
LXF-289; first compound 0.04 µM
  relative viability: 0.565
LXF-289; first compound 0.1265 µM
  relative viability: 0.589
LXF-289; first compound 0.4 µM
  relative viability: 0.415
LXF-289; first compound 1.265 µM
  relative viability: 0.51
LXF-289; first compound 4 µM
  relative viability: 0.431
PC-14; first compound 0.04 µM
  relative viability: 0.65
PC-14; first compound 0.1265 µM
  relative viability: 0.522
PC-14; first compound 0.4 µM
  relative viability: 0.484
PC-14; first compound 1.265 µM
  relative viability: 0.212
PC-14; first compound 4 µM
  relative viability: 0.103
NCI-H2342; first compound 0.04 µM
  relative viability: 0.464
NCI-H2342; first compound 0.1265 µM
  relative viability: 0.538
NCI-H2342; first compound 0.4 µM
  relative viability: 0.614
NCI-H2342; first compound 1.265 µM
  relative viability: 0.506
NCI-H2342; first compound 4 µM
  relative viability: 0.6
NCI-H1563; first compound 0.04 µM
  relative viability: 0.7
NCI-H1563; first compound 0.1265 µM
  relative viability: 0.64
NCI-H1563; first compound 0.4 µM
  relative viability: 0.683
NCI-H1563; first compound 1.265 µM
  relative viability: 0.604
NCI-H1563; first compound 4 µM
  relative viability: 0.601
SK-LU-1; first compound 0.04 µM
  relative viability: 0.581
SK-LU-1; first compound 0.1265 µM
  relative viability: 0.594
SK-LU-1; first compound 0.4 µM
  relative viability: 0.507
SK-LU-1; first compound 1.265 µM
  relative viability: 0.463
SK-LU-1; first compound 4 µM
  relative viability: 0.288
LCLC-97TM1; first compound 0.04 µM
  relative viability: 0.483
LCLC-97TM1; first compound 0.1265 µM
  relative viability: 0.42
LCLC-97TM1; first compound 0.4 µM
  relative viability: 0.394
LCLC-97TM1; first compound 1.265 µM
  relative viability: 0.357
LCLC-97TM1; first compound 4 µM
  relative viability: 0.204
NCI-H647; first compound 0.04 µM
  relative viability: 0.663
NCI-H647; first compound 0.1265 µM
  relative viability: 0.595
NCI-H647; first compound 0.4 µM
  relative viability: 0.624
NCI-H647; first compound 1.265 µM
  relative viability: 0.608
NCI-H647; first compound 4 µM
  relative viability: 0.643
NCI-H1993; first compound 0.04 µM
  relative viability: 0.501
NCI-H1993; first compound 0.1265 µM
  relative viability: 0.471
NCI-H1993; first compound 0.4 µM
  relative viability: 0.438
NCI-H1993; first compound 1.265 µM
  relative viability: 0.558
NCI-H1993; first compound 4 µM
  relative viability: 0.527
NCI-H2009; first compound 0.04 µM
  relative viability: 0.475
NCI-H2009; first compound 0.1265 µM
  relative viability: 0.527
NCI-H2009; first compound 0.4 µM
  relative viability: 0.534
NCI-H2009; first compound 1.265 µM
  relative viability: 0.484
NCI-H2009; first compound 4 µM
  relative viability: 0.366
H3255; first compound 0.04 µM
  relative viability: 0.381
H3255; first compound 0.1265 µM
  relative viability: 0.325
H3255; first compound 0.4 µM
  relative viability: 0.332
H3255; first compound 4 µM
  relative viability: 0.32
HOP-62; first compound 0.04 µM
  relative viability: 0.662
HOP-62; first compound 0.1265 µM
  relative viability: 0.65
HOP-62; first compound 0.4 µM
  relative viability: 0.654
HOP-62; first compound 1.265 µM
  relative viability: 0.725
HOP-62; first compound 4 µM
  relative viability: 0.718
NCI-H2023; first compound 0.04 µM
  relative viability: 0.521
NCI-H2023; first compound 0.1265 µM
  relative viability: 0.466
NCI-H2023; first compound 0.4 µM
  relative viability: 0.473
NCI-H2023; first compound 1.265 µM
  relative viability: 0.411
NCI-H2023; first compound 4 µM
  relative viability: 0.34
EMC-BAC-2; first compound 0.04 µM
  relative viability: 0.541
EMC-BAC-2; first compound 0.1265 µM
  relative viability: 0.491
EMC-BAC-2; first compound 0.4 µM
  relative viability: 0.442
EMC-BAC-2; first compound 1.265 µM
  relative viability: 0.507
EMC-BAC-2; first compound 4 µM
  relative viability: 0.486
NCI-H727; first compound 0.04 µM
  relative viability: 0.554
NCI-H727; first compound 0.1265 µM
  relative viability: 0.484
NCI-H727; first compound 0.4 µM
  relative viability: 0.394
NCI-H727; first compound 1.265 µM
  relative viability: 0.416
NCI-H727; first compound 4 µM
  relative viability: 0.352
NCI-H1915; first compound 0.04 µM
  relative viability: 0.38
NCI-H1915; first compound 0.1265 µM
  relative viability: 0.354
NCI-H1915; first compound 0.4 µM
  relative viability: 0.381
NCI-H1915; first compound 1.265 µM
  relative viability: 0.416
NCI-H1915; first compound 4 µM
  relative viability: 0.328
BEN; first compound 0.04 µM
  relative viability: 0.304
BEN; first compound 0.1265 µM
  relative viability: 0.271
BEN; first compound 0.4 µM
  relative viability: 0.274
BEN; first compound 1.265 µM
  relative viability: 0.267
BEN; first compound 4 µM
  relative viability: 0.285
NCI-H661; first compound 0.04 µM
  relative viability: 0.301
NCI-H661; first compound 0.1265 µM
  relative viability: 0.277
NCI-H661; first compound 0.4 µM
  relative viability: 0.259
NCI-H661; first compound 1.265 µM
  relative viability: 0.24
NCI-H661; first compound 4 µM
  relative viability: 0.248
NCI-H322M; first compound 0.04 µM
  relative viability: 0.793
NCI-H322M; first compound 0.1265 µM
  relative viability: 0.669
NCI-H322M; first compound 0.4 µM
  relative viability: 0.689
NCI-H322M; first compound 4 µM
  relative viability: 0.704
NCI-H2085; first compound 0.04 µM
  relative viability: 0.656
NCI-H2085; first compound 0.1265 µM
  relative viability: 0.799
NCI-H2085; first compound 0.4 µM
  relative viability: 0.685
NCI-H2085; first compound 1.265 µM
  relative viability: 0.622
NCI-H2085; first compound 4 µM
  relative viability: 0.395
NCI-H2126; first compound 0.04 µM
  relative viability: 0.552
NCI-H2126; first compound 0.1265 µM
  relative viability: 0.58
NCI-H2126; first compound 0.4 µM
  relative viability: 0.525
NCI-H2126; first compound 1.265 µM
  relative viability: 0.461
NCI-H2126; first compound 4 µM
  relative viability: 0.384
